Laboratory results published in publication PMC12257073 (Cancer Research Communications, 2025).
Read-outs that look alike come from different tables or passages of the source.

Experiments:
TP53-mutated AML = details: cited from earlier work
[1] = Adverse events (treatment-related and all-cause) and dose-limiting toxicities, NCI CTCAE version 4.0; details: all treated patients, TP-0903 + decitabine
Protocol: The phase 1b portion of the study used a standard 3 + 3 dose-escalation design with a starting dose level 1 (DL1) of 37 mg oral daily TP-0903 (Supplementary Table S2) based on experience with 50 mg oral daily as a single agent in patients with solid tumors ([25]). Dose-limiting toxicities (DLT) were evaluated to establish the dose brought forward for an expansion cohort (phase 2). Seven patients were enrolled in the phase 1b study, which was completed in January 2021 with the decision to move forward with an expansion cohort of 37 mg oral daily. Across the phase 1b and phase 2 studies, 15 patients were enrolled and started on 37 mg TP-0903 oral daily on days 1 to 21 (group 1). […] One additional patient was enrolled at this time but was inadvertently started on 25 mg TP-0903 oral daily on days 1 to 21. […] In May 2021, an amendment was approved to allow enrollment of a new group 2 at 25mg oral daily on days 1 to 21 of TP-0903 (DL-1) in stage 2 of the phase 2 study.
Clinical response was assessed according to the modified 2017 European LeukemiaNet AML criteria ([26]). The primary endpoint was achievement of CR within six cycles of therapy. Secondary endpoints included toxicity, duration of response, OS, and the proportion of eligible patients who effectively transitioned to allogeneic stem cell transplantation. Exploratory endpoints included pharmacokinetics (PK), correlative genetic, and biochemical data; correlations between morphologic remission, spectral flow cytometry, and mutational remission; and duration of remission or survival. […] Adverse events (AE) were graded according to the NCI Common Terminology Criteria for Adverse Events version 4.0 ([27]).

CC1(C)CCC(CN2CCN(c3ccc(C(=O)NS(=O)(=O)c4ccc(NCC5CCOCC5)c([N+](=O)[O-])c4)c(Oc4cnc5[nH]ccc5c4)c3)CC2)=C(c2ccc(Cl)cc2)C1 [venetoclax]
Median OS (TP53-mutated AML; venetoclax added to HMAs, no difference vs HMA alone): approximately 5.2 months | CR + CRi rate (TP53-mutated AML; venetoclax added to HMAs): 55% | Median OS (TP53-mutated AML; venetoclax and azacitidine, TP53-mutated patients with poor-risk cytogenetics): 5.2 months | Median OS (TP53-mutated AML; venetoclax in combination with azacitidine, older or medically unfit patients with AML): ≤ 17.5 months | CR + CRi rate (TP53-mutated AML; venetoclax plus azacitidine, patients with mutant TP53): 55%

COCC1(CO)C(=O)C2CCN1CC2 (stereo not drawn) [eprenetapopt]
Median OS (TP53-mutated AML; eprenetapopt combined with azacitidine): less than 1 year | CR rate (TP53-mutated AML; eprenetapopt, mutant p53): ≤ 17%

Nc1ncn([C@@H]2O[C@H](CO)[C@@H](O)[C@H]2O)c(=O)n1 [azacitidine]
Median OS (TP53-mutated AML; TP53-mutated patients, azacitidine): 7.9 months

c1cn2cc(-c3ccc4cn[nH]c4c3)nc(Nc3ccc(N4CCOCC4)cc3)c2n1 [entospletinib]
CR + CRi rate (TP53-mutated AML; entospletinib and a 10-day course of decitabine, complex karyotype AML with a TP53 mutation): 17.1% | Median OS (TP53-mutated AML; entospletinib combined with decitabine, patients with mutant TP53): 6.5 months

Nc1ncn([C@H]2C[C@H](O)[C@@H](CO)O2)c(=O)n1 [decitabine, reference compound]
Serious AEs related to decitabine [1]: only one patient had a serious AE related to decitabine (grade 3 pneumonia)

magrolimab
Median OS (TP53-mutated AML; magrolimab and azacitidine, TP53-mutated patients): 9.8 months
